Patent publication US6846931B2, “Organic acid salt of amlodipine” (CJ Corp, priority 2002, dated 2005)

Experiments:
[1] = Test for light stability, aqueous solution exposed to daylight (HPLC content); assay type: physicochemical; details: for content (HPLC): stored for 4 weeks at 25° C. daylight; for color change: 4 weeks at 25° C., daylight
Protocol: The resulting aqueous solutions were stored at 25° C. for 4 weeks while being exposed to daylight. A measurement was made of the contents of the salts with resort to HPLC under the same conditions as in the chemical stability test.

[2] = Chemical stability in solid state, accelerated test at 60° C. (HPLC content); assay type: physicochemical; details: for changes in the content: accelerated test at 60° C.; for content (HPLC): solid state, 60° C.
Description: 1. HPLC Analysis Conditions:
Detector: UV Absorbance (at 237 nm)
Column: Octadesyl silica gel C18 (4.6 mm×150mm, 5 μm)
Mobile Phase: Potassium dihydrogenphosphate monobasic (0.03M): methanol=4:6 (v/v)

[3] = Test for hygroscopicity (water content at different humidity levels); assay type: physicochemical; details: for water content: 25° C.; for change of water content: one week under various humidity conditions
[4] = Chemical stability in aqueous state, 25° C., 4 weeks, complete darkness (HPLC); assay type: physicochemical; details: distilled water
Protocol: The resulting aqueous solutions were stored at 25° C. for 4 weeks in complete darkness, after which a measurement was made of the contents of the salts with resort to HPLC under the same conditions as in the solid state.

[5] = physchem; details: 37 °C, pH 5, aqueous buffer

Row | SMILES | content (HPLC) [1] [%] | changes in the content [2] | content (HPLC) ([2]; 1 week) [%] | content (HPLC) ([2]; 2 weeks) [%] | content (HPLC) ([2]; initial) [%] | water content ([3]; 25% RH, 1 week) [%] | water content ([3]; 60% RH, 1 week) [%] | water content ([3]; 75% RH, 1 week) [%] | water content ([3]; 90% RH, 1 week) [%] | water content ([3]; Initial) [%] | change of water content [3] | color change [1] | decomposition products and content change [4] | solubility [5] [µg/mL]
1 | CCOC(=O)C1=C(COCCN)NC(C)=C(C(=O)OC)C1c1ccccc1Cl.Cc1ccc(S(=O)(=O)O)cc1 (stereo not drawn) [Tosylate, Amlodipine para-Toluenesulfonate] | 72.0 | – | – | – | – | – | – | – | – | – | – | – | – | –
2 | CCOC(=O)C1=C(COCCN)NC(C)=C(C(=O)OC)C1c1ccccc1Cl (stereo not drawn) [Besylate, Amlodipine Besylate] | 82.5 | virtually no changes in the content | 99.6 | 99.4 | 99.6 | 0.10 | 0.09 | 0.15 | 0.17 | 0.14 | kept its initial water content without great fluctuation | turned yellow from white | neither decomposition products nor content change is found | 3150
3 | CCOC(=O)C1=C(COCCN)NC(C)=C(C(=O)OC)[C@@H]1c1ccccc1Cl [(S)-(−)-PyroGlu, Amlodipine (S)-(−)-Pyroglutamate] | 98.5 | virtually no changes in the content | 99.6 | – | 99.6 | 0.26 | 0.3 | 0.31 | 0.32 | 0.3 | kept its initial water content without great fluctuation | no color change | neither decomposition products nor content change is found | –
